These results are taken from US7427625B2, “Substituted thiatriazaacenaphthylene-6-carbonitrile kinase inhibitors” (Janssen Pharmaceutica, N.V., priority 2006, dated 2008).

The target in experiment [1] is T1, EGFR (Homo sapiens, UniProt P00533).
T1 construct: The intracellular portion of EGFR started at nucleotide 2189 (corresponding to amino acid 667) and ended at the termination codon; made in house; host or cells: Sf9 insect cells (baculovirus)
The experiment can be described thus: EGFR Kinase Assay. The experiment is classed as biochemical. The settings on record: for inhibition at 2 µM: test concentration of 2 μM, read-out: EGFR percent inhibition. The source says: The EGFR kinase used was a fusion of Glutathione-S-Transferase (GST) and a PCR amplified intracellular portion of EGFR (NM_005228). The intracellular portion of EGFR started at nucleotide 2189 (corresponding to amino acid 667) and ended at the termination codon. The portion was PCR amplified with primers that added the lambda attB sequences to each end, recombined into an entry vector, then into a GST destination vector (as described in Gateway Technologies Manual by Invitrogen Corporation, Carlsbad, Calif.).
The destination vector was recombined in the DH10BAC strain of bacteria to produce a bacmid. The bacmid was transfected into Sf 9 cells and the supernatant containing the baculovirus was collected. The GSTEGFR protein was purified using large cultures of Sf 9 cells infected with stock virus. After an appropriate period of time, the cells were collected and lysed. The GSTEGFR was then purified from the lysate on Glutathione-Sepharose columns (as described by Amersham Biosciences, Buckinghamshire, United Kingdom).
The EGFR substrate was prepared by biotinylating polyGluTyr (128 mg) (Sigma, St. Louis, Mo.) in a 1×PBS buffer incubated together with a 12-fold molar excess of Sulfo-NHS-LC-Biotin on ice for at least 2 hrs. The free biotin was separated from the biotinylated polyGluTyr on a gel filtration column.
A mixture of a 10× kinase buffer (500 mM Tris at pH 8.0, 100 mM Magnesium Chloride and 1 mM Sodium Vanadate), DTT (1 mM final from 500 mM stock), ATP (5 μM final from 10 mM stock), biotinylated polyGluTyr (10 μg/μL stock), γ-^33P ATP (10 μCi/μL stock) and water was added to each well (90 μL/well) of a Streptavidin Flashplate (Perkin Elmer, Wellesley, Mass.).
Test compound in 100% DMSO (2 μL) was added to the appropriate wells. Diluted GSTEGFR (1:300 dilution in 50 mM Tris at pH 8.0 and 0.1% bovine serum albumin) (10 μL) was added to the wells to initiate the reactions.
The plates were incubated at 30° C. for 1 hr with shaking. The reacted contents were removed and the plates were sequentially washed three times with a 1×PBS stop buffer (300 μL without Magnesium and Calcium) and 100 mM EDTA. After the final wash, the same stop buffer (200 μL) was added to the wells. The plates were then sealed and read on the TopCount scintillation counter.
Test compounds were assayed in triplicate at 16 concentrations at half-log dilutions starting at 200 uM. A maximum and minimum signal for the assay was determined on each plate. The percent inhibition of a test compound was calculated according to the formula
For a series of test concentrations, the IC50 was derived by graphing percent inhibition against the log of the concentrations tested for a given compound. For those compounds without an IC50, the percent inhibition results are shown at a test concentration of 2 μM.

In experiment [2] the target is T2, VEGF-R2 (Rattus norvegicus, UniProt O08775).
T2 construct: polyhistidine (N)
T2 sequence (O08775 786-1343): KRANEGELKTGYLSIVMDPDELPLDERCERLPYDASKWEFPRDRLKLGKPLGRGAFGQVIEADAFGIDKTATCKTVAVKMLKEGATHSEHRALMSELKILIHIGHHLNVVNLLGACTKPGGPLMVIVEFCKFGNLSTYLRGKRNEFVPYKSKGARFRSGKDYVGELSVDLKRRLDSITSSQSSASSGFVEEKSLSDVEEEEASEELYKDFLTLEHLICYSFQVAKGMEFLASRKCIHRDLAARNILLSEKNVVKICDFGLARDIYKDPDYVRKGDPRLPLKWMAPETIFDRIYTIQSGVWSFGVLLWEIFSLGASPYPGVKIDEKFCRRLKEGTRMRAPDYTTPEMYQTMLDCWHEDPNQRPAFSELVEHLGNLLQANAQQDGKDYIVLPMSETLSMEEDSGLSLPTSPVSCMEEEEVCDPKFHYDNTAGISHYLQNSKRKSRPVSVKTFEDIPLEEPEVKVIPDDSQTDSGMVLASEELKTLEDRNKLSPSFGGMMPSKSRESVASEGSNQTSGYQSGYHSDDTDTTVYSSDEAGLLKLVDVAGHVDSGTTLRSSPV
The experiment can be described thus: VEGF-R2 Screening Assay. The experiment is classed as biochemical. The settings on record: for inhibition at 1 µM: test concentration of 1 μM, read-out: VEGF-R2 percent inhibition. The protocol: (§1) A kinase reaction mixture was prepared containing 50 mM Tris-HCl at pH 8, 10 mM, MgCl20.1 mM […], 1 mM DTT, 10 μM ATP, 0.025 μM biotinylated histone-H1 peptide substrate and 0.2 μCuries per well ^33P-γ-ATP (2000-3000 Ci/mmol). 70 μL of the kinase reaction mixture was dispensed into the well of a Streptavidin FlashPlate.
(§2) Test compound stock in 100% DMSO (1 μL) was added to the wells resulting in a final concentration of 1% DMSO in the reaction with a 100 μL final reaction volume. Each enzyme was diluted in 50 mM Tris-HCl pH=8.0, 0.1% BSA and 30 μL was added to each well to initiate the reaction. The reaction was incubated for one hour at 30° C. At the end of the 1 hr incubation, the reaction was terminated by aspirating the mixture from the plate and washing the wells twice with PBS containing 100 mM EDTA. The biotinylated peptide substrate became immobilized on the Flashplate^198 and the incorporation of ^33P-γ-ATP was measured by reading the plate on a scintillation counter. Inhibition of the enzymatic activity was measured by observing a reduced amount of ^33P-γ-ATP incorporated into the immobilized peptide.
The VEGF-R2 enzyme is a fusion protein containing a polyhistidine tag at the N terminus followed by amino acids 786 to 1343 of the rat VEGF-R2 kinase domain (Accession number U93306). The assay used 150 ng of the N-terminal biotinylated peptide biotin-KHKKLAEGSAYEEV-amide (VEGF-R2) per well.
(§3) The IC50 was derived according to the procedure described in Example 2. For those compounds without an IC50, the percent inhibition results are shown at a test concentration of 1 μM.

The target in experiment [3] is T3, Aurora-A (Mus musculus, UniProt P97477).
T3 construct: followed by the full length protein encoding the murine Aurora-A; polyhistidine (N); made in house; host or cells: sf9 insect cells
T3 sequence (P97477 1-395): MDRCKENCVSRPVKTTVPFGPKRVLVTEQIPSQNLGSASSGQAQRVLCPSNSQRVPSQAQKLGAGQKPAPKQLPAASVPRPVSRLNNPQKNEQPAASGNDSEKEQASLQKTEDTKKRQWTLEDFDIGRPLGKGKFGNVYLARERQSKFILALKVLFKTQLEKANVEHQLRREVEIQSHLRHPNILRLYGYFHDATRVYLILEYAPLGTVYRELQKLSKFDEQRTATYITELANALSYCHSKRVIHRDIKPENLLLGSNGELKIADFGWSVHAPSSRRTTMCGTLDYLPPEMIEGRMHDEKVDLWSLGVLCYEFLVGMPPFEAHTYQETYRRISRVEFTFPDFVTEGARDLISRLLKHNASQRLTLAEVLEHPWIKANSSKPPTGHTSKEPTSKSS
The experiment can be described thus: Aurora-A Screening Assay. In kind it is biochemical, murine. The settings on record: for inhibition at 1 µM: test concentration of 1 μM, read-out: Aurora-A percent inhibition. As for the experimental part:
as §1, §2
Aurora-A is a fusion protein containing a polyhistidine tag at the N terminus followed by the full length protein encoding the murine Aurora-A (Accession number GB BC014711) expressed and purified from sf9 insect cells. The assay used 400 ng of the N-terminal biotinylated peptide biotin-GRTGRRNSI-amide (Aurora-A) per well.
as §3

Experiment [4] concerns the target T4, HER-2 (Homo sapiens, UniProt P04626).
T4 construct: the nucleotides encoding amino acids 679 to 1255 of HER-2; purchased Proqinase (Freiburg, Germany)
The experiment can be described thus: HER-2 Kinase Assay. The experiment is classed as biochemical. The settings on record: for inhibition at 1 µM: test concentration of 1 μM, read-out: HER-2 percent inhibition. As for the experimental part:
HER-2 kinase was purified at Proqinase (Freiburg, Germany) from a construct that consisted of a fusion of GST (Glutathione-S-Transferase), HIS6-Thrombin and the nucleotides encoding amino acids 679 to 1255 of HER-2.
A mixture of a 10× kinase reaction buffer (600 mM Hepes at pH 7.5, 30 mM Magnesium Chloride, 0.03 mM Sodium Vanadate and 500 μg/mL PEG 20,000), DTT (1.2 mM final from a 10 mM stock), ATP (1 μM from a 10 mM stock), biotinylated polyGluTyr (1.5 ng/μL final from stock of 1 μg/μL prepared by Upstate Biotechnologies, Lake Placid, N.Y.), Manganese Chloride (3 mM final from a 1 M stock), γ-^33P-ATP (10 μCi/μL stock) and water (70 μL/well) was added to each well of a Streptavidin Flashplate (Cat. #SMP103, NEN, Boston, Mass.).
Test compound stock (1 μL) was added to the appropriate wells. Diluted GSTHER2 kinase (6.7 ng/μL diluted into 50 mM Tris-HCl at pH 8.0 and 0.1% bovine serum albumin) (30 μL) was added (total volume of 200 ng/well) to initiate the reactions.
The reaction plates were incubated at 30° C. for 1 hr. The reaction was terminated by aspiring the reaction mixture from the plate wells and washing the wells three times with a 1×PBS stop buffer (300 μL) and 100 mM EDTA. After the final wash, the same stop buffer (200 μL) was again added to the wells. The plates were then sealed and read on the TopCount scintillation counter.
as §3

T1 sequence (P00533 669-1210 limits assumed): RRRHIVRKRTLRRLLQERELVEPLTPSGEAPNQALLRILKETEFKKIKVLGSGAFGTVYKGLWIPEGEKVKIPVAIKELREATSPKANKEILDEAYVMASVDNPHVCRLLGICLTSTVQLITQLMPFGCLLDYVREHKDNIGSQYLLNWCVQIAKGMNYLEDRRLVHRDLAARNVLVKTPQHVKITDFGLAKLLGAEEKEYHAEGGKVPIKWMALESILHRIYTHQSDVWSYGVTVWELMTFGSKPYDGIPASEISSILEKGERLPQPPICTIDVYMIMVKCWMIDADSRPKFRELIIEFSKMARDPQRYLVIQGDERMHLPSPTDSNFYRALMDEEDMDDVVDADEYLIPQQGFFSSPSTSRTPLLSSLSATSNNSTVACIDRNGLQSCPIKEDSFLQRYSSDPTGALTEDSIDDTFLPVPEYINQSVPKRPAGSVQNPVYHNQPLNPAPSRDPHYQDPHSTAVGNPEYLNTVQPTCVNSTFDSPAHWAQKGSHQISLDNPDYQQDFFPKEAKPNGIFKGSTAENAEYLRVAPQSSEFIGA
T4 sequence (P04626 679-1255): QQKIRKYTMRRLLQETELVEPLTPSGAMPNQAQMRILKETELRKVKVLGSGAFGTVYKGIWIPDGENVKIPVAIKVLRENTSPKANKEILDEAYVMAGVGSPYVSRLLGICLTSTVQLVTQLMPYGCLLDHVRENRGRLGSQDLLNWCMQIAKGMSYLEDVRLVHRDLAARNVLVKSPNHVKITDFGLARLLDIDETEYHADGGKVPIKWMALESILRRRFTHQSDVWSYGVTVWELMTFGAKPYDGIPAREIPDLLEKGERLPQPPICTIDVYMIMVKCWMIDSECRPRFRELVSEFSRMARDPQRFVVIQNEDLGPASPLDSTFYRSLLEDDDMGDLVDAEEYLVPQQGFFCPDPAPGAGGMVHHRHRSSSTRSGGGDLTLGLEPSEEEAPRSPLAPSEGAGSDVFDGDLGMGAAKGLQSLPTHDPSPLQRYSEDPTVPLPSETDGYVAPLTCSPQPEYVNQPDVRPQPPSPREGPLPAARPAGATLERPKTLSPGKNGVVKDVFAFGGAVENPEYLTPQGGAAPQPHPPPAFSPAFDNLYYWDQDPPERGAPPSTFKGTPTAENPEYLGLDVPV

For orientation: inhibition means the relative decrease from the control value, in per cent. In general, IC50 refers to the concentration that gives 50% inhibition. For the compound `Cc1cc(NC(=O)c2sc3ncc(C#N)c4c3c2NC(=O)N4c2c(Cl)ccc3c2OCO3)no1` [Cpd 34, 5-(5-chloro-benzo[1,3]dioxol-4-yl)-6-cyano-4-oxo-4,5-dihydro-3H-1-thia-3,5,8-triaza-acenaphthylene-2-carboxylic acid (5-methyl-isoxazol-3-yl)-amide], the inhibition at 2 µM in experiment [1] was 30%. Besides, the inhibition at 1 µM amounted to 16% in experiment [2] and 29% in experiment [3]. The half-inhibitory concentration (IC50) in experiment [4] is > 1000 nM.

With `N#Cc1cnc2sc(C(=O)Nc3ncccn3)c3c2c1N(c1c(Cl)ccc2c1OCO2)C(=O)N3` [Cpd 35, 5-(5-chloro-benzo[1,3]dioxol-4-yl)-6-cyano-4-oxo-4,5-dihydro-3H-1-thia-3,5,8-triaza-acenaphthylene-2-carboxylic acid pyrimidin-2-ylamide], the inhibition at 2 µM in experiment [1] was determined as 42%. Moreover, the inhibition at 1 µM in experiment [2] stood at 22%; in experiment [3] it was 16%. Also, the concentration for half-maximal inhibition (IC50) in experiment [4] is > 1000 nM.

With `N#Cc1cnc2sc(C(=O)Nc3cccnc3)c3c2c1N(c1c(Cl)ccc2c1OCO2)C(=O)N3` [Cpd 36, 5-(5-chloro-benzo[1,3]dioxol-4-yl)-6-cyano-4-oxo-4,5-dihydro-3H-1-thia-3,5,8-triaza-acenaphthylene-2-carboxylic acid pyridin-3-ylamide], in experiment [1], the inhibition at 2 µM is 35%. The inhibition at 1 µM in experiment [2] is 15%; in experiment [3], 21%; in experiment [4], 29%.

In the case of `N#Cc1cnc2sc(C(=O)Nc3ccccn3)c3c2c1N(c1c(Cl)ccc2c1OCO2)C(=O)N3` [Cpd 37, 5-(5-chloro-benzo[1,3]dioxol-4-yl)-6-cyano-4-oxo-4,5-dihydro-3H-1-thia-3,5,8-triaza-acenaphthylene-2-carboxylic acid pyridin-2-ylamide], the inhibition at 2 µM in experiment [1] stood at 10%. Also, the inhibition at 1 µM in experiment [2] is -22%; in experiment [3], 3%; in experiment [4], 11%.

As to `CC(C)(CO)NC(=O)c1sc2ncc(C#N)c3c2c1NC(=O)N3c1c(Cl)ccc2c1OCO2` [Cpd 38, 5-(5-chloro-benzo[1,3]dioxol-4-yl)-6-cyano-4-oxo-4,5-dihydro-3H-1-thia-3,5,8-triaza-acenaphthylene-2-carboxylic acid (2-hydroxy-1,1-dimethyl-ethyl)-amide], the inhibition at 2 µM in experiment [1] worked out at 13%. In addition, the inhibition at 1 µM worked out at 2% in experiment [2], 4% in experiment [3] and 0% in experiment [4].

With `Cn1ccc(NC(=O)c2sc3ncc(C#N)c4c3c2NC(=O)N4c2c(Cl)ccc3c2OCO3)n1` [Cpd 39, 5-(5-chloro-benzo[1,3]dioxol-4-yl)-6-cyano-4-oxo-4,5-dihydro-3H-1-thia-3,5,8-triaza-acenaphthylene-2-carboxylic acid (1-methyl-1H-pyrazol-3-yl)-amide], the inhibition at 2 µM in experiment [1] came out at 26%. The inhibition at 1 µM in experiment [2] came to 9%; in experiment [3], 15%; in experiment [4], 0%.

Turning to `N#Cc1cnc2sc(C(=O)Nc3ccncc3)c3c2c1N(c1c(Cl)ccc2c1OCO2)C(=O)N3` [Cpd 40, 5-(5-chloro-benzo[1,3]dioxol-4-yl)-6-cyano-4-oxo-4,5-dihydro-3H-1-thia-3,5,8-triaza-acenaphthylene-2-carboxylic acid pyridin-4-ylamide], the inhibition at 2 µM in experiment [1] was 30%. The inhibition at 1 µM was found to be 9% in experiment [2], 15% in experiment [3] and 0% in experiment [4].

For the compound `N#Cc1cnc2sc(C(=O)Nc3ccc(CN4CCC(N)CC4)cc3)c3c2c1N(c1c(Cl)ccc2c1OCO2)C(=O)N3` [Cpd 47, 5-(5-chloro-benzo[1,3]dioxol-4-yl)-6-cyano-4-oxo-4,5-dihydro-3H-1-thia-3,5,8-triaza-acenaphthylene-2-carboxylic acid [4-(4-amino-piperidin-1-ylmethyl)-phenyl]-amide], the half-maximal inhibitory concentration (IC50) in experiment [1] was 514 nM; in experiment [2], > 100000 nM; in experiment [3] it was > 100000 nM; in experiment [4], 1870 nM.

As for `N#Cc1cnc2sc(C(=O)Nc3ccc(CN4CCOCC4)cc3)c3c2c1N(c1ccc(Oc2ccccc2)cc1)C(=O)N3` [Cpd 50, 6-cyano-4-oxo-5-(4-phenoxy-phenyl)-4,5-dihydro-3H-1-thia-3,5,8-triaza-acenaphthylene-2-carboxylic acid (4-morpholin-4-ylmethyl-phenyl)-amide], the IC50 in experiment [1] was 124 nM; in experiment [2], > 10000 nM; in experiment [3], > 100000 nM; in experiment [4], 2200 nM.
